# Test results as given in article PMC8301423, “The Effects of Temperature and Pressure on Protein-Ligand Binding in the Presence of Mars-Relevant Salts” (Biology, 2021).
# Values joined by “and” are separate entries in the source; they are usually repeats but may differ in a detail not shown here. Equal values may be shown once.
# Key:
# [1] = target: T1, bovine serum albumin (BSA) (Bos taurus, UniProt P02769); conditions: neat buffer (10 mM Tris-HCl), no salt; cited from earlier work
# T1 construct: BSA, molecular weight of 66 kDa, 583 residues; purchased Sigma Aldrich Chemicals (Taufkirchen, Germany)
# T1 sequence (P02769 25-607): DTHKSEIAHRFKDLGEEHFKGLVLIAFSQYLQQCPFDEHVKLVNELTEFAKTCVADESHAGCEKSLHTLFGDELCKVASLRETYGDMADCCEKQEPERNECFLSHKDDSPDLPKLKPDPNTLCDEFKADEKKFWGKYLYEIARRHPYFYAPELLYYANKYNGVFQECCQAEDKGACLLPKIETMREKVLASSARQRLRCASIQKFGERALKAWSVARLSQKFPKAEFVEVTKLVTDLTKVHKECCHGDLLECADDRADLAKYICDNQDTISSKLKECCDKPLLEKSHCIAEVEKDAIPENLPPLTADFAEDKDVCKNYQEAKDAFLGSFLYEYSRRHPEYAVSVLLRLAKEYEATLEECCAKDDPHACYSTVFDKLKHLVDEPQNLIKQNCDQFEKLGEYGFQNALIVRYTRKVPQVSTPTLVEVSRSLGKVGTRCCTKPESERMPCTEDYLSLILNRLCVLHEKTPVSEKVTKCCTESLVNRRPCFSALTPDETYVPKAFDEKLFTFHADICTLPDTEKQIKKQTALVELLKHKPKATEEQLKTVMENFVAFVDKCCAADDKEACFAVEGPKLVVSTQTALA
# [2] = target: T1, bovine serum albumin (BSA); test: High hydrostatic pressure fluorescence titration of ANS with BSA (1-2000 bar); type: binding; conditions: for Binding volume ΔVb1 (first binding site): from slope of lnKb1 vs p (1-2000 bar); for Binding volume ΔVb1 (first binding site) / Binding volume ΔVb2 (second binding site) / Binding volume ΔVb: per mol of protein; for Binding volume ΔVb2 (second binding site): from slope of lnKb2 vs p (1-2000 bar); for Binding volume ΔVb: from slope of lnKb vs p (1-2000 bar)
# Description: The extent of complex formation between ANS and BSA was followed by means of steady-state fluorescence spectroscopy using a K2 fluorometer from ISS, Inc. (Champaign, IL, USA). The binding isotherms were obtained by recording ANS emission spectra by exciting the solutions at 350 nm and recording the emission intensities in the range 400–550 nm. The width slits of the excitation and emission monochromators were both set to 8 nm. Briefly, a series of solutions with a fixed concentration of ANS at ~5 µM were prepared, and the concentration of BSA was varied between 0 and ~40 µM. Then estimation of the binding constants (Kb) was performed by using a plot of ΔF = F − F0 (where F is the fluorescence intensity of ANS at the maximum in the presence of BSA, and F0 is the intensity of ANS in the absence of BSA) as a function of total BSA concentration and fitting the experimental data according to an equivalent and independent binding sites model or to two classes of non-equivalent and independent binding-site models, as described in detail in Reference.
# For the pressure dependent measurements, the high-pressure cell system from ISS and quartz cuvettes were used. The pressure was controlled by means of a manual pump, and water was used as pressurizing fluid. A pressure range from 1 to 2000 bar was explored. The ANS and BSA solutions were mixed, vortexed, and then filled into the sample cell, which was sealed with DuraSeal^TM laboratory stretch film and placed into the high-pressure vessel. The stretch film allowed for the pressure transmission in the sample cuvette.
# In the next step, we explored the impact of high hydrostatic pressure (HHP) on the binding of ANS to BSA in the presence of the three salts and in the temperature range between 5 and 25 °C. To this end, we performed the same titration experiments following the complex formation by means of HHP fluorescence spectroscopy.
# From the pressure dependence of the Kb values, the volume change upon binding, the protein–ligand binding volume ΔVb, can be determined (for an in-depth discussion of pressure effects on ligand binding, please refer to Reference and references therein):(1) [∂lnKb/∂p]T=−ΔVb/RT
# Here, [∂lnKb/∂p]T is the derivative of the logarithm of the binding constant (Kb) with respect to pressure (p) at constant temperature (T). R is the universal gas constant. ΔVb is the binding volume defined as the difference between the partial molar volume of the complex (PL, where P is the protein and L the ligand) and the sum of the partial molar volumes of the uncomplexed state (P+L). Thus, the binding volume can be directly estimated by taking the slope of a plot of lnKb vs. p, assuming that the volume change is independent of pressure in the (here rather small) pressure range covered.
# [3] = target: T1, bovine serum albumin (BSA); test: Job's plot (method of continuous variation) by steady-state fluorescence for binding stoichiometry; conditions: 1 bar
# Method: First, we explored the impact of 250 mM MgCl2, Mg(ClO4)2, and MgSO4 on the ligand binding process at 25 °C and ambient pressure (1 bar). To be able to determine the binding constant, it is of fundamental importance to exactly know the stoichiometry of the complex formed. In this way, a proper binding model can be applied in the data analysis of the measured binding isotherms, providing the most appropriate value of the binding constant, Kb. We applied the method of continuous variation (or Job’s plot) for the estimation of the binding stoichiometry by means of steady-state fluorescence spectroscopy. A series of solutions were prepared such that the total concentration (i.e., [ANS] + [BSA]) is constant, while the mole fractions of the interacting partners were varied. Discontinuities in the plot of fluorescence intensity vs. xANS (where xANS is the mole fraction of ANS) are indicative of the stoichiometry of the complex formed.
# [4] = 250 mM Mg(ClO4)2, 25 °C, [ANS]+[BSA] 35 µM
structure (smiles),measurement,setting,value
"O=S(=O)(O)c1cccc2cccc(Nc3ccccc3)c12 [ANS, 8-anilinonaphthalene-1-sulfonic acid]",ANS molecules bound on average to one BSA molecule,[1],three
same,Binding volume ΔVb1 (first binding site),"[2]; 250 mM Mg(ClO4)2, 5 °C",-7.4 mL/mol and -7.4 ± 2.4 mL/mol
same,Binding volume ΔVb2 (second binding site),"[2]; 250 mM Mg(ClO4)2, 5 °C",-12.9 mL/mol and -12.9 ± 3.2 mL/mol
same,Binding volume ΔVb1 (first binding site),"[2]; 250 mM Mg(ClO4)2, 15 °C",-6.0 ± 1.0 mL/mol
same,Binding volume ΔVb2 (second binding site),"[2]; 250 mM Mg(ClO4)2, 15 °C",-5.0 ± 1.0 mL/mol
same,Binding volume ΔVb1 (first binding site),"[2]; 250 mM Mg(ClO4)2, 25 °C",6.0 ± 2.0 mL/mol
same,Binding volume ΔVb2 (second binding site),"[2]; 250 mM Mg(ClO4)2, 25 °C",2.0 ± 1.0 mL/mol
same,Increase of Kb with pressure (factor),"[2]; 250 mM MgCl2, 5 °C, up to 2 kbar",about a factor of two
same,Binding volume ΔVb,"[2]; 250 mM MgCl2, 15 °C",-2.5 ± 0.4 mL/mol
same,Binding volume ΔVb,"[2]; 250 mM MgCl2, 25 °C",-1.0 ± 1.0 mL/mol
same,Binding volume ΔVb,"[2]; 250 mM MgSO4, 5 °C",2.0 ± 1.0 mL/mol
same,Binding volume ΔVb,"[2]; 250 mM MgSO4, 15 °C",-2.0 ± 1.0 mL/mol
same,Binding volume ΔVb,"[2]; 250 mM MgSO4, 25 °C",3.6 ± 0.5 mL/mol
same,Kd,"[2]; Binding constant Kb1, 250 mM Mg(ClO4)2, 5 °C, 1 bar",5260 nM
same,Kd,"[2]; Binding constant Kb1, 250 mM Mg(ClO4)2, 5 °C, 500 bar",3130 nM
same,Kd,"[2]; Binding constant Kb1, 250 mM Mg(ClO4)2, 5 °C, 1000 bar",2940 nM
same,Kd,"[2]; Binding constant Kb1, 250 mM Mg(ClO4)2, 5 °C, 1500 bar",2860 nM
same,Kd,"[2]; Binding constant Kb1, 250 mM Mg(ClO4)2, 5 °C, 2000 bar",2560 nM
same,Kd,"[2]; Binding constant Kb1, 250 mM Mg(ClO4)2, 15 °C, 1 bar",6670 nM
same,Kd,"[2]; Binding constant Kb1, 250 mM Mg(ClO4)2, 15 °C, 500 bar",7140 nM
same,Kd,"[2]; Binding constant Kb1, 250 mM Mg(ClO4)2, 15 °C, 1000 bar",5260 nM
same,Kd,"[2]; Binding constant Kb1, 250 mM Mg(ClO4)2, 15 °C, 1500 bar",4760 nM
same,Kd,"[2]; Binding constant Kb1, 250 mM Mg(ClO4)2, 15 °C, 2000 bar",3850 nM
same,Kd,"[2]; Binding constant Kb1, 250 mM Mg(ClO4)2, 25 °C, 1 bar",1690 nM
same,Kd,"[2]; Binding constant Kb1, 250 mM Mg(ClO4)2, 25 °C, 500 bar",1690 nM
same,Kd,"[2]; Binding constant Kb1, 250 mM Mg(ClO4)2, 25 °C, 1000 bar",2630 nM
same,Kd,"[2]; Binding constant Kb1, 250 mM Mg(ClO4)2, 25 °C, 1500 bar",2940 nM
same,Kd,"[2]; Binding constant Kb1, 250 mM Mg(ClO4)2, 25 °C, 2000 bar",2500 nM
same,Kd,"[2]; Binding constant Kb1, 250 mM MgCl2, 5 °C, 1 bar",1000 ± 100 nM
same,Kd,"[2]; Binding constant Kb1, 250 mM MgCl2, 5 °C, 500 bar",1000 ± 200 nM
same,Kd,"[2]; Binding constant Kb1, 250 mM MgCl2, 5 °C, 1000 bar",833 nM
same,Kd,"[2]; Binding constant Kb1, 250 mM MgCl2, 5 °C, 1500 bar",556 nM
same,Kd,"[2]; Binding constant Kb1, 250 mM MgCl2, 5 °C, 2000 bar",526 nM
same,Kd,"[2]; Binding constant Kb1, 250 mM MgCl2, 15 °C, 1 bar",2780 nM
same,Kd,"[2]; Binding constant Kb1, 250 mM MgCl2, 15 °C, 500 bar",2500 nM
same,Kd,"[2]; Binding constant Kb1, 250 mM MgCl2, 15 °C, 1000 bar",2440 nM
same,Kd,"[2]; Binding constant Kb1, 250 mM MgCl2, 15 °C, 1500 bar",2330 nM
same,Kd,"[2]; Binding constant Kb1, 250 mM MgCl2, 15 °C, 2000 bar",2220 nM
same,Kd,"[2]; Binding constant Kb1, 250 mM MgCl2, 25 °C, 1 bar",204 nM
same,Kd,"[2]; Binding constant Kb1, 250 mM MgCl2, 25 °C, 500 bar",233 nM
same,Kd,"[2]; Binding constant Kb1, 250 mM MgCl2, 25 °C, 1000 bar",222 nM
same,Kd,"[2]; Binding constant Kb1, 250 mM MgCl2, 25 °C, 1500 bar",204 nM
same,Kd,"[2]; Binding constant Kb1, 250 mM MgCl2, 25 °C, 2000 bar",192 nM
same,Kd,"[2]; Binding constant Kb1, 250 mM MgSO4, 5 °C, 1 bar",1610 nM
same,Kd,"[2]; Binding constant Kb1, 250 mM MgSO4, 5 °C, 500 bar",2080 nM
same,Kd,"[2]; Binding constant Kb1, 250 mM MgSO4, 5 °C, 1000 bar",2130 nM
same,Kd,"[2]; Binding constant Kb1, 250 mM MgSO4, 5 °C, 1500 bar",1820 nM
same,Kd,"[2]; Binding constant Kb1, 250 mM MgSO4, 5 °C, 2000 bar",2270 nM
same,Kd,"[2]; Binding constant Kb1, 250 mM MgSO4, 15 °C, 1 bar",2560 nM
same,Kd,"[2]; Binding constant Kb1, 250 mM MgSO4, 15 °C, 500 bar",2500 nM
same,Kd,"[2]; Binding constant Kb1, 250 mM MgSO4, 15 °C, 1000 bar",2380 nM
same,Kd,"[2]; Binding constant Kb1, 250 mM MgSO4, 15 °C, 1500 bar",2330 nM
same,Kd,"[2]; Binding constant Kb1, 250 mM MgSO4, 15 °C, 2000 bar",2220 nM
same,Kd,"[2]; Binding constant Kb1, 250 mM MgSO4, 25 °C, 1 bar",345 nM
same,Kd,"[2]; Binding constant Kb1, 250 mM MgSO4, 25 °C, 500 bar",345 nM
same,Kd,"[2]; Binding constant Kb1, 250 mM MgSO4, 25 °C, 1000 bar",370 nM
same,Kd,"[2]; Binding constant Kb1, 250 mM MgSO4, 25 °C, 1500 bar",417 nM
same,Kd,"[2]; Binding constant Kb1, 250 mM MgSO4, 25 °C, 2000 bar",455 nM
same,Kd,"[2]; Binding constant Kb2, 250 mM Mg(ClO4)2, 5 °C, 1 bar",5260 nM
same,Kd,"[2]; Binding constant Kb2, 250 mM Mg(ClO4)2, 5 °C, 500 bar",2500 nM
same,Kd,"[2]; Binding constant Kb2, 250 mM Mg(ClO4)2, 5 °C, 1000 bar",2940 nM
same,Kd,"[2]; Binding constant Kb2, 250 mM Mg(ClO4)2, 5 °C, 1500 bar",1920 nM
same,Kd,"[2]; Binding constant Kb2, 250 mM Mg(ClO4)2, 5 °C, 2000 bar",1520 nM
same,Kd,"[2]; Binding constant Kb2, 250 mM Mg(ClO4)2, 15 °C, 1 bar",7690 nM
same,Kd,"[2]; Binding constant Kb2, 250 mM Mg(ClO4)2, 15 °C, 500 bar",6670 nM
same,Kd,"[2]; Binding constant Kb2, 250 mM Mg(ClO4)2, 15 °C, 1000 bar",5260 nM
same,Kd,"[2]; Binding constant Kb2, 250 mM Mg(ClO4)2, 15 °C, 1500 bar",4760 nM
same,Kd,"[2]; Binding constant Kb2, 250 mM Mg(ClO4)2, 15 °C, 2000 bar",4170 nM
same,Kd,"[2]; Binding constant Kb2, 250 mM Mg(ClO4)2, 25 °C, 1 bar",833 nM
same,Kd,"[2]; Binding constant Kb2, 250 mM Mg(ClO4)2, 25 °C, 500 bar",909 nM
same,Kd,"[2]; Binding constant Kb2, 250 mM Mg(ClO4)2, 25 °C, 1000 bar",833 nM
same,Kd,"[2]; Binding constant Kb2, 250 mM Mg(ClO4)2, 25 °C, 1500 bar",833 nM
same,Kd,"[2]; Binding constant Kb2, 250 mM Mg(ClO4)2, 25 °C, 2000 bar",1120 nM
same,ANS molecules bound to one BSA molecule,"[3]; 250 mM Mg(ClO4)2, 25 °C",two
same,Job's plot first inflection point xANS,[3]; [4],0.5
same,Job's plot second inflection point xANS,[3]; [4],≈ 0.65
same,Job's plot inflection point xANS (mole fraction of ANS),"[3]; 250 mM MgCl2, 25 °C, [ANS]+[BSA] 35 µM",≈ 0.75
same,ANS molecules bound to one BSA molecule,"[3]; 250 mM MgSO4, 25 °C",three
same,Job's plot inflection point xANS (mole fraction of ANS),"[3]; 250 mM MgSO4, 25 °C, [ANS]+[BSA] 35 µM",≈ 0.75
